According to patent US20240327426A1, “CRYSTALLINE FORMS OF CEFTIBUTEN” (QPEX BIOPHARMA, INC., priority 2021, published 2024):

Legend:
Assay type in all cases: physicochemical
[1] = Karl Fischer moisture content of ceftibuten hydrate batches; conditions: batches prepared by procedure of Example 1, dried at 30° C. in a vacuum oven
Experimental: (§1) In a reaction vessel are charged 400 mL of demineralized water, 37.0 g crude Ceftibuten and 190 mL acetone at 20-25° C. To this mixture is added with stirring a solution of 22.1 g NaHCO3 and 252.2 mL of demineralized water, keeping the pH at 6.5-6.9. The pH is then adjusted to 6.5-6.7 using 15% aqueous H2SO4. To the resulting solution are charged 13.8 g aluminum oxide, 5 g Norit charcoal, 1.5 g Na2S2O4 and 0.25 g disodium EDTA. The mixture is stirred for 20-25 min maintaining pH at 6.5-6.7 with 15% aqueous H2SO4, and is then filtered and washed with 200 mL of demineralized water. The filtrate is added over 20-30 min to a second vessel containing 630 mL water, 81 g malic acid and 175 g 15% aqueous H2SO4, maintaining the temperature at 20-25° C. After stirring for 50-70 min, the pH is adjusted to 2.9-3.1 over 20-25 min at 20-25° C. with a solution constituted by 30 g of K2CO3 and 70 g of demineralized water. This mixture is stirred for 2-2.5 hours, after which it is filtered and washed 5 times with demineralized water (250 mL each). The wet product is dried at 30° C. in a vacuum oven. Depending on the extent of drying, the resulting product may be Form A, Form B, or a mixture of Forms A and B. Three batches prepared by this procedure are shown in Table 1 below.
Karl Fischer analyses were carried out using a Mettler-Toledo C20 Coulometric KF titrator. The instrument was calibrated using a Hydranal water standard containing 1% water. The titrant was a Hydranal methanol solution.

[2] = Differential scanning calorimetry (DSC); conditions: 25° C. to 350° C. at 10° C. per minute, nitrogen purge
Experimental: DSC analysis was carried out using a TA Instruments Q2500 Discovery Series instrument. The instrument temperature calibration was performed using indium. The DSC cell was kept under a nitrogen purge of ˜50 mL per minute during the analysis. The sample was placed in a standard, crimped, aluminum pan and was heated from approximately 25° C. to 350° C. at a rate of 10° C. per minute.

[3] = Physical stability under relative humidity conditions, checked by X-ray powder diffraction
Text: In some embodiments, Form A of the compound of Formula (I) may contain between two to three molar equivalents of water. Samples of Form A of the compound of Formula (I) were exposed to several relative humidity conditions ranging from 15% to 100% relative humidity for a period of 14 days, after which an X-ray powder diffraction was taken. In one embodiment, samples Form A of the compound of Formula (I) were exposed to several relative humidity conditions, including 15% relative humidity, 30% relative humidity, 45% relative humidity, 60% relative humidity, 75% relative humidity, and 100% relative humidity for a period of 14 days, after which an X-ray powder diffraction was taken. […] In some embodiments, Form B of the compound of Formula (I) may contain between two to three molar equivalents of water. […] X-ray diffraction was used to characterize the compound of Formula (I). A Rigaku Smart-Lab X-ray diffraction system was configured for reflection Bragg-Brentano geometry using a line source X-ray beam. The x-ray source was a Cu Long Fine Focus tube that may be operated at 40 kV and 44 mA. That source provides an incident beam profile at the sample that changes from a narrow line at high angles to a broad rectangle at low angles. […] Each sample was analyzed from 2 to 40° 2θ using a continuous scan of 6° 2θ per minute with an effective step size of 0.02° 2θ.

[4] = Moisture sorption-desorption (dynamic vapor sorption) analysis; conditions: for Crystalline form after moisture sorption-desorption analysis: 25° C., 5 to 95% RH adsorption and 95 to 5% RH desorption, 10% RH steps
Experimental: In one embodiment, moisture sorption-desorption analyses were taken after running the moisture sorption-desorption experiments. […] DVS analysis was carried out TA Instruments Q5000 Dynamic Vapor Sorption analyzer. The instrument was calibrated with standard weights and a sodium bromide standard for humidity. Samples were analyzed at 25° C. with a maximum equilibration time of 60 minutes in 10% relative humidity (RH) steps from 5 to 95% RH (adsorption cycle) and from 95 to 5% RH (desorption cycle).

[5] = Form stability upon storage/shipping at ambient temperature and humidity
Experimental: as §1

| Dehydration temperature during heating [2] | Hygroscopicity [4] | Crystalline form after moisture sorption-desorption analysis [4] | Crystalline form change / stability upon storage/shipping [5] | further results | SMILES |
| --- | --- | --- | --- | --- | --- |
| – | – | – | – | Moisture Content ([1]; listed as 2): 8.60% | Nc1nc(/C(=C/CC(=O)O)C(=O)N[C@@H]2C(=O)N3C(C(=O)O)=CCS[C@H]23)cs1 [Batch 2, ceftibuten] |
| approximately 100 °C | moderately hygroscopic | convert to Form B | – | Form conversion under extremely dry conditions ([3]; 0% relative humidity): may convert to Form B; X-ray powder diffraction form after relative humidity exposure ([3]; 15%, 30%, 45%, 60%, 75% and 100% relative humidity, 14 days): match for Form A | Nc1nc(/C(=C/CC(=O)O)C(=O)N[C@@H]2C(=O)N3C(C(=O)O)=CCS[C@H]23)cs1 [Form A, ceftibuten] |
| approximately 100 °C | moderately hygroscopic | remain stable and unchanged | increased stability | – | Nc1nc(/C(=C/CC(=O)O)C(=O)N[C@@H]2C(=O)N3C(C(=O)O)=CCS[C@H]23)cs1 [Form B, ceftibuten] |
| – | – | – | – | Moisture Content ([1]; listed as 3): 11.68% | Nc1nc(/C(=C/CC(=O)O)C(=O)N[C@@H]2C(=O)N3C(C(=O)O)=CCS[C@H]23)cs1 [Batch 3, ceftibuten] |
| – | – | – | converted from a mixture to all Form B | Moisture Content [1]: 9.44% | Nc1nc(/C(=C/CC(=O)O)C(=O)N[C@@H]2C(=O)N3C(C(=O)O)=CCS[C@H]23)cs1 [Batch 1, ceftibuten] |
